Source: patent publication US20240246942A1, “KINASE INHIBITORS FOR THE TREATMENT OF NEURODEGENERATIVE DISEASES” (priority 2020, published 2024)

Tests used:
[1] = test system: SHSY5Y cells; assay: MTT cytotoxicity assay; format: cell-based; parameters: dose or concentration left out as unconfirmed; conditions: 48 hrs, average of ≥2 experiments;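 further: compounds tested at 10 µM final concentration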
Experimental: A day before the assay, cells were plated at 50,000/well in 96 well plates in the culture medium. […] After the incubation, cells were subjected to MTT assay using Vybrant MTT Cell Proliferation kit as directed by the vendor (Life Technologies).

[2] = target: CYP2C9 (Homo sapiens, UniProt P11712); assay: P450 cocktail inhibition assay, CYP2C9; format: in vitro ADME; conditions: at 10 μM
Experimental: (§1) P450s inhibition for four major isoforms are evaluated using a cocktail inhibition assay where the metabolism of specific marker substrate (CYP1A2 phenaceten […] to acetaminophen); CYP2C9, tolbutamide hydroxylation to hydrocytolbutamide; CYP2D6, bufuralol hydroxylation to […]; and CYP3A4, midazolam hydroxylation to 1′-Hydroxymidazolam) in the presence or absence of 10 TM probe compound is evaluated. The concentration of each marker substrate is approximately its Km. […] Specific inhibitors for each isoform are included in each run to validate the system.

[3] = Microsomal stability, mouse; format: in vitro ADME; conditions: mouse microsomes
[4] = target: p38α (Homo sapiens, UniProt Q16539); assay: p38 enzyme inhibition assay; conditions: mean of ≥2 experiments; read-out: Biochemical inhibition IC50 p38α
[5] = target: JNK2 (Homo sapiens, UniProt P45984); assay: JNK2 homogeneous time-resolved fluorescence enzyme inhibition assay; format: biochemical; conditions: for R: ratio of IC50 values of JNK2 over JNK3: isoform selectivity against JNK2; for IC50: mean of ≥2 experiments, read-out: Biochemical inhibition IC50 JNK2
Experimental: (§2) A 10-point titration of all compounds was carried out in 3-fold dilutions from 10 μM to 0.5 nM.

[6] = target: CYP2D6 (Homo sapiens, UniProt P10635); assay: P450 cocktail inhibition assay, CYP2D6; format: in vitro ADME; conditions: at 10 μM
Experimental: as §1

[7] = target: CYP3A4 (Homo sapiens, UniProt P08684); assay: P450 cocktail inhibition assay, CYP3A4; format: in vitro ADME; conditions: at 10 μM
Experimental: as §1

[8] = target: T1, CYP1A2 (Homo sapiens, UniProt P05177); assay: P450 cocktail inhibition assay, CYP1A2; format: in vitro ADME; conditions: at 10 μM
T1 sequence (P05177 1-516): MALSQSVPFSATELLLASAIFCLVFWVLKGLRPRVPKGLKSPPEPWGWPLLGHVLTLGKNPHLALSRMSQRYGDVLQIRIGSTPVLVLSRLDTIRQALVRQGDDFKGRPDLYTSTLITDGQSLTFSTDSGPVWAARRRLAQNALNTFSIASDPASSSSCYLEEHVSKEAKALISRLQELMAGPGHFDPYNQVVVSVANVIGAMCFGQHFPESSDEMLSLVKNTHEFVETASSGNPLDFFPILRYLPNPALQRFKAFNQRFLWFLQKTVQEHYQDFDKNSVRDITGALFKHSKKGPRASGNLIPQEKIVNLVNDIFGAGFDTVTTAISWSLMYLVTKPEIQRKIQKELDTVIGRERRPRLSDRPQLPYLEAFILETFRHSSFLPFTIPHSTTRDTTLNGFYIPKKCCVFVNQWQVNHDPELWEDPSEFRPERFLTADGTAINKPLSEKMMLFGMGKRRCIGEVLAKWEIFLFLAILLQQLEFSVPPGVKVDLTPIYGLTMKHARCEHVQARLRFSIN
Experimental: as §1

[9] = target: JNK3α1 (Homo sapiens, UniProt P53779); format: biochemical; conditions: for IC50: mean of ≥2 experiments, read-out: Biochemical inhibition IC50 JNK3
Experimental: as §2

[10] = Microsomal stability, human; format: in vitro ADME; conditions: human microsomes
[11] = target: JNK1 (Homo sapiens, UniProt P45983); assay: JNK1 homogeneous time-resolved fluorescence enzyme inhibition assay; format: biochemical; conditions: for R: ratio of IC50 values of JNK1 over JNK3: isoform selectivity against JNK1; for IC50: mean of ≥2 experiments, read-out: Biochemical inhibition IC50 JNK1
Experimental: as §2

[12] = test system: JNK3-dependent phosphorylation of APP at T668; assay: JNK3 inhibition assay in rat primary neuron cultures (Western blot, anisomycin activated); format: cell-based; conditions: even at a concentration as low as 10 nM; FIGS. 5A-5C
Experimental: Both hippocampal and cortical neurons were isolated from E18 rat embryos and cultured in NbActive 1 medium that contains B27 (Brainbits, LLC) plus penicillin/streptomycin (Life Technologies). At the 7th day in culture, cells were treated with different concentrations of inhibitors diluted in DMSO and 80 ng/ml Anisomycin for 30 min to activate the endogenous JNK3. At the end of incubation time, whole cell lysates were prepared in RIPA buffer containing 50 mM Tris (pH 8.0), 150 mM NaCl, 2 mM EDTA, 1% NP-40, 0.5% deoxycholate supplemented with 10 mM Na pyrophosphate, 1 mM sodium orthovanadate, 25 mM NaF, 10 μg/ml leupeptin, 10 μg/ml aprotinin, 1 mM β-glycerophosphate, and 2 mM PMSF. The lysates were subjected to Western blotting to detect whether inhibitors block JNK3-dependent phosphorylation of APP at T668 and c-jun at S73. Phospho-APP^T668, phosphor-c-jun^S73, APP, and c-jun antibodies were from Cell Signaling Technology.

Sequence of JNK3α1 (P53779 1-422 isoform P53779-2): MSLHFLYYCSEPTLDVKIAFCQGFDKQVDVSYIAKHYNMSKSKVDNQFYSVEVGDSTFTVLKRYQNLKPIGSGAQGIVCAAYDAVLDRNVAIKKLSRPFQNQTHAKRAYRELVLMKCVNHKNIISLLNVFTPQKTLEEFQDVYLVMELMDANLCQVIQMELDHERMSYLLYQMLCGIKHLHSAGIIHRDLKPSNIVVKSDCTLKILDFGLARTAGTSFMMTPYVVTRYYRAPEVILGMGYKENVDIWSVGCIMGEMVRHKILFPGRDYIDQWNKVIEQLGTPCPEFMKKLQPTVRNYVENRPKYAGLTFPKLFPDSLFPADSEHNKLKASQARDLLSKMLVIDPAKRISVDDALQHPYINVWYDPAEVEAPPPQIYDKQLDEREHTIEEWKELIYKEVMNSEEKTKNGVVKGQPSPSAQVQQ
Sequence of CYP2D6 (P10635 whole entry): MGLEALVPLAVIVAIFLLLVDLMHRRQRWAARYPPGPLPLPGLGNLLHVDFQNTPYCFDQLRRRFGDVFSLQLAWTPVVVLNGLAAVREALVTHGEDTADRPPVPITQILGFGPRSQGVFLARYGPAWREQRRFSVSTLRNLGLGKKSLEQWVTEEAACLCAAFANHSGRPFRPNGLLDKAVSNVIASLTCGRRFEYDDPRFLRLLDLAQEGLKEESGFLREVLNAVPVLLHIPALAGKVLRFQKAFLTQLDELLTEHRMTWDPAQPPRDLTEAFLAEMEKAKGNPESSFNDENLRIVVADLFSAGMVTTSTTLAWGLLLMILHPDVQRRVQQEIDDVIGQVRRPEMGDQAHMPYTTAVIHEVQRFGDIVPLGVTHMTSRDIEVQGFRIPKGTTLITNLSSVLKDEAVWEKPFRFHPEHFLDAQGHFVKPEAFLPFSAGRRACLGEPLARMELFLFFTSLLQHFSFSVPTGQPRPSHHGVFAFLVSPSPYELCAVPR
Sequence of JNK1 (P45983 whole entry, canonical isoform): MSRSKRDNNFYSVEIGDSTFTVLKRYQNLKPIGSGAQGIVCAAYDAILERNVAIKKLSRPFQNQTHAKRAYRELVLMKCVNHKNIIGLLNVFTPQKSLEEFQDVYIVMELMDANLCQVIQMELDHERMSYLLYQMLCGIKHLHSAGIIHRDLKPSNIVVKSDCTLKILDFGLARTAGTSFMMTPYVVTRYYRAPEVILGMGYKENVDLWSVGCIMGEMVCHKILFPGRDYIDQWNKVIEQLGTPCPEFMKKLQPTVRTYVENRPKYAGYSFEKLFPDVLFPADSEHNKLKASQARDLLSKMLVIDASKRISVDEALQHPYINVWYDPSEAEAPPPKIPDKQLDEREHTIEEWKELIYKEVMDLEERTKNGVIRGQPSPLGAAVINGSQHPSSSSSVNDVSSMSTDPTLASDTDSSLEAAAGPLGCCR
Sequence of JNK2 (P45984 whole entry, canonical isoform): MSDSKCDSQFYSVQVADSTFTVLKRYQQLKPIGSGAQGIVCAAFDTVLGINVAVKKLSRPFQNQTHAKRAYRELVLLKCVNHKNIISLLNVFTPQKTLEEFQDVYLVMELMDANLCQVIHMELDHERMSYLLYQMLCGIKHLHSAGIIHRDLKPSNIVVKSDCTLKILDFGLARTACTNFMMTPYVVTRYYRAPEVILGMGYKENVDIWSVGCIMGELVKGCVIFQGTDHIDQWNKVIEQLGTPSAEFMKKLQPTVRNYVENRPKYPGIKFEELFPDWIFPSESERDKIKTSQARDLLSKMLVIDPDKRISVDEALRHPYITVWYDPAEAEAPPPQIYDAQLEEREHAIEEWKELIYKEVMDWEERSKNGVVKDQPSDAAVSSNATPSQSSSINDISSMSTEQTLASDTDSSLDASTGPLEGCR
Sequence of CYP3A4 (P08684 whole entry): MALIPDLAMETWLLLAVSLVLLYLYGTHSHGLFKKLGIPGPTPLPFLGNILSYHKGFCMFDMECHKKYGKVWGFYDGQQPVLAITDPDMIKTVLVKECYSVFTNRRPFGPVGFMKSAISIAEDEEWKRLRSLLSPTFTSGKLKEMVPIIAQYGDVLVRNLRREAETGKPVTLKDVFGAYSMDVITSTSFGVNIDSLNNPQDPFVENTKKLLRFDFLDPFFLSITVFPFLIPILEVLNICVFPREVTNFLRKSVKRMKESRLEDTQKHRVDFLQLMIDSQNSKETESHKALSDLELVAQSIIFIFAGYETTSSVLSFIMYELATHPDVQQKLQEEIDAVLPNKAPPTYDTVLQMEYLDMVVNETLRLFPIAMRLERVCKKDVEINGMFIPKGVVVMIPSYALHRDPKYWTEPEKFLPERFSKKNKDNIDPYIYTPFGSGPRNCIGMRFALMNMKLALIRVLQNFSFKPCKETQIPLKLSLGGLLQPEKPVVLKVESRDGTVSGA
Sequence of CYP2C9 (P11712 whole entry, canonical isoform): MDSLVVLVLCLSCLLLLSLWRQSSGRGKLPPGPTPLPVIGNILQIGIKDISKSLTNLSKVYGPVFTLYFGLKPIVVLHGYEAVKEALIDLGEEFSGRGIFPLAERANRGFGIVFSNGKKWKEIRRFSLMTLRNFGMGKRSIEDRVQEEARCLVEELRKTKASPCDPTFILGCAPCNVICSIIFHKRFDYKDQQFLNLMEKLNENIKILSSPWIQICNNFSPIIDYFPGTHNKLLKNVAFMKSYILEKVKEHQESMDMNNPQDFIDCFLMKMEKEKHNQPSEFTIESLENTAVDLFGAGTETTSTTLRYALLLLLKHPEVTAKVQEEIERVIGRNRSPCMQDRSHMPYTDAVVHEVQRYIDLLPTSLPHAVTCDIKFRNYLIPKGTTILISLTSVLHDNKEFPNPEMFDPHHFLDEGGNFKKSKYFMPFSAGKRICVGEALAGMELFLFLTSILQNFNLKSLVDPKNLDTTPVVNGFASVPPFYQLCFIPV
Sequence of p38α (Q16539 whole entry, canonical isoform): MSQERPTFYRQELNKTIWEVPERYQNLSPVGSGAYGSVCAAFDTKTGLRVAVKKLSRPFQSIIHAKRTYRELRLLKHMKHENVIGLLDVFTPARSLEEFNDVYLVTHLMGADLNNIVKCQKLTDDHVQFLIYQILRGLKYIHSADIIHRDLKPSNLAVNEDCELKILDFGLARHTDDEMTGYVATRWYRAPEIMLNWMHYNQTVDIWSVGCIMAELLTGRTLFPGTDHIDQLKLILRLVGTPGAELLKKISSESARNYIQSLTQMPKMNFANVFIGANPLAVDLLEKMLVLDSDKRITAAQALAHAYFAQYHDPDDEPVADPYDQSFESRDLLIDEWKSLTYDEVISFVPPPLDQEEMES

Structure (SMILES)	MTT cell viability [1] [%]	CYP-450 % inh. 2C9 [2] [%]	Mic. stability t1/2 Mouse [3] [min]	IC50 [4] [nM]	isoform selectivity against JNK2 vs JNK3 [5]	R: ratio of IC50 values of JNK2 over JNK3 [5]	IC50 [5] [nM]	CYP-450 % inh. 2D6 [6] [%]	CYP-450 % inh. 3A4 [7] [%]	CYP-450 % inh. 1A2 [8] [%]	IC50 [9] [nM]	Mic. stability t1/2 Human [10] [min]	R: ratio of IC50 values of JNK1 over JNK3 [11]	IC50 [11] [nM]	inhibition of phosphorylation of residue T668 of APP [12]	reduction in JNK3 inhibitions ([9]; compared to 16) [fold]
O=C(Nc1cnn(-c2csc(C(=O)NC3CC3)c2)c1)Nc1ccccc1Cl [Compound 8, 4-(4-(3-(2-chlorophenyl)ureido)-1H-pyrazol-1-yl)-N-cyclopropylthiophene-2-carboxamide]	103	−4	35	> 20000	around 40 folds	40	3200	−29	−45	−2	80	49	93	7400		
CN1CCC(NC(=O)c2cc(-n3cc(NC(=O)Nc4ccccc4Cl)cn3)cs2)CC1 [Compound 14, 4-(4-(3-(2-chlorophenyl)ureido)-1H-pyrazol-1-yl)-N-(1-methylpiperidin-4-yl)thiophene-2-carboxamide]	89	−19	15	> 20000		33	2770	−5	−34	−6	84	92		4200		
O=C(Nc1cnn(-c2csc(C(=O)NC3CCOCC3)c2)c1)Nc1ccccc1Cl [Compound 15, 4-(4-(3-(2-chlorophenyl)ureido)-1H-pyrazol-1-yl)-N-(tetrahydro-2H-pyran-4-yl)thiophene-2-carboxamide]	97	7	16	> 20000		21	1050	0	−35	32	50	32	38	1900		
O=C(Nc1cnn(-c2csc(C(=O)NCC3CCOCC3)c2)c1)Nc1ccccc1Cl [Compound 24, 4-(4-(3-(2-chlorophenyl)ureido)-1H-pyrazol-1-yl)-N-((tetrahydro-2H-pyran-4-yl)methyl)thiophene-2-carboxamide]	95	64	15	> 20000		34	810	32	21	36	24	8	63	1500		
O=C(Nc1cnn(-c2csc(C(=O)NC3COC3)c2)c1)Nc1ccc(F)cc1Cl [Compound 26, 4-(4-(3-(2-chloro-4-fluorophenyl)ureido)-1H-pyrazol-1-yl)-N-(oxetan-3-yl)thiophene-2-carboxamide]	104	47	68					30	−5	38		>120			significantly inhibited	
Cc1sc(C(=O)N[C@@H]2CCOC2)cc1-n1cc(NC(=O)Nc2c(F)cccc2Cl)cn1 [Compound 28, (R)-4-(4-(3-(2-chloro-6-fluorophenyl)ureido)-1H-pyrazol-1-yl)-5-methyl-N-(tetrahydrofuran-3-yl)thiophene-2-carboxamide]	114	35	38					17	26	34		40			significantly inhibited	7
